Data as given in patent US9833506B2, “Vaccine—screening method” (priority 2011, dated 2017).
Read-outs that look alike come from different tables or passages of the source.

Assays:
Type in all cases: cell-based, human
[1] = system: CD4+ T cell lines killing peptide pulsed autologous EBV-transformed B cell lines; test: Chromium release assay, perforin-dependent cytotoxicity of CD4+ T cell lines; conditions: CD4+ T cells incubated 2 h with 100 nM concanamycin; 51Cr release; FIG. 7b
[2] = system: T cells in PBMC of H3N2 (A/Wisconsin/67/05) challenge study subjects; conditions: for SFC/million PBMC (range): IFN-γ ELISPOT, peptide 2 μg/ml, 300,000 PBMC/well, background subtracted; for SFC/million PBMC (range) / CD4 or CD8 dependency: baseline samples; for CD4 or CD8 dependency: second ELISPOT after CD8 depletion, 4 = CD4, 8 = CD8; for Number positive (%): percent of subjects responding to the peptide at baseline; for Number positive: subjects responding to the peptide at baseline, of 8 subjects with peptides identified
[3] = system: T cells in PBMC of H1N1 (A/Brisbane/59/07) challenge study subjects; conditions: for SFC/million PBMC (range): IFN-γ ELISPOT, peptide 2 μg/ml, 300,000 PBMC/well, background subtracted; for Positive no(%): percent of subjects responding to the peptide at baseline; for Positive no: subjects responding to the peptide at baseline, of 7 subjects
[4] = baseline samples, second ELISPOT after CD8 depletion, 4 = CD4, 8 = CD8

Row | Molecule | SFC/million PBMC (range) [2] | CD4 or CD8 dependency [2] | Number positive (%) [2] | Number positive [2] | further results
1 | C/C=C/[C@H]1O[C@@](O)([C@@H](C)[C@H](O)[C@H](C)[C@H]2OC(=O)/C(OC)=C/C(C)=C/[C@@H](C)[C@@H](O)[C@@H](CC)[C@@H](O)[C@H](C)C/C(C)=C/C=C/[C@@H]2OC)C[C@@H](O)[C@@H]1C [concanamycin] |  |  |  |  | Sensitivity of CD4 T cell killing of autologous target cells to concanamycin [1]: sensitive
2 | EIRASVGKMIDGIGRFYI [NP05] | 141.5 (35-248) SFC/million PBMC | 4 | 26% | 2 | 
3 | GENGRKTRIAYERMCNIL [NP27] |  |  |  |  | CD4 or CD8 dependency [3]: 8; SFC/million PBMC, days after challenge 7 [3]: 157 SFC/million PBMC; SFC/million PBMC, days after challenge 28 [3]: 10 SFC/million PBMC; SFC/million PBMC, days after challenge −2 [3]: 30 SFC/million PBMC; SFC/million PBMC (range) ([3]; baseline samples): 30 SFC/million PBMC; CD4 or CD8 dependency [3, 4]: 8; Positive no(%) [3]: 14%; Positive no [3]: 1
4 | GKWMRELVLYDKEEIRRI [NP15] | 93 (45-141) SFC/million PBMC | 4 | 26% | 2 | 
5 | GQTSVQPTFSVQRNLPF [NP57] | 10 SFC/million PBMC | 4 | 13% | 1 | 
6 | HRSHRQMVATTNPLIKH [Peptide M23] | 158 SFC/million PBMC | 4 | 13% | 1 | 
7 | IAYERMCNILKGKFQTAA (Influenza A virus) [NP28, synthetic peptide of H1N1 influenza A NP protein, amino acid position 217-234] |  |  |  |  | CD4 or CD8 dependency [3]: 8; SFC/million PBMC, days after challenge 7 [3]: 67 SFC/million PBMC; SFC/million PBMC, days after challenge 28 [3]: 10 SFC/million PBMC; SFC/million PBMC, days after challenge −2 [3]: 40 SFC/million PBMC; SFC/million PBMC (range) ([3]; baseline samples): 40 SFC/million PBMC; CD4 or CD8 dependency [3, 4]: 8; Positive no(%) [3]: 14%; Positive no [3]: 1
8 | IKHENRMVLASTTAKAM (Influenza A virus) [Peptide M25, synthetic peptide of H3N2 influenza A M protein, amino acid position 173-189] | 118 SFC/million PBMC | 4 | 13% | 1 | 
9 | KFQTAAQRAMVDQVRESR (Influenza A virus) [NP32, synthetic peptide of H3N2 influenza A NP protein, amino acid position 229-246] | 104 SFC/million PBMC | 8 | 13% | 1 | 
10 | KLSDHEGRLIQNSLTIEK [NP08] | 26 SFC/million PBMC | 4 | 13% | 1 | 
11 | LKREITFHKAKEIALSY [Peptide M15] | 67 (35-96) SFC/million PBMC | 4 | 38% | 3 | 
12 | PIYRRVDGKWMRELVLY [NP14] | 113 (45-181) SFC/million PBMC | 4 | 26% | 2 | 
13 | QPTFSVQRNLPFDKTTIM [NP52] |  |  |  |  | SFC/million PBMC (range) ([3]; baseline samples): 26 SFC/million PBMC; CD4 or CD8 dependency [3, 4]: 4; Positive no(%) [3]: 14%; CD4 or CD8 dependency ([3]; subject B017(2C)): 4; SFC/million PBMC, days after challenge 7 ([3]; subject B017(2C), day 7): 76 SFC/million PBMC; SFC/million PBMC, days after challenge 28 ([3]; subject B017(2C), day 28): 10 SFC/million PBMC; SFC/million PBMC, days after challenge −2 ([3]; subject B017(2C), day −2): 26 SFC/million PBMC; Positive no [3]: 1
14 | RMVLSAFDERRNKYLEEH (Influenza A virus) [NP09, synthetic peptide of H1N1 influenza A NP protein, amino acid position 65-82] |  |  |  |  | CD4 or CD8 dependency [3]: 4; SFC/million PBMC, days after challenge 7 [3]: 187 SFC/million PBMC; SFC/million PBMC, days after challenge 28 [3]: 113 SFC/million PBMC; SFC/million PBMC, days after challenge −2 [3]: 38 SFC/million PBMC; SFC/million PBMC (range) ([3]; baseline samples): 38 SFC/million PBMC; CD4 or CD8 dependency [3, 4]: 4; Positive no(%) [3]: 14%; Positive no [3]: 1
15 | SNLNDATYQRTRALVR (Influenza A virus) [NP20, synthetic peptide of H3N2 influenza A NP protein, amino acid position 141-156] | 391 SFC/million PBMC | 8 | 13% | 1 | 
16 | TFSVQRSLPFEKSTIMAA [NP58] | 10 SFC/million PBMC | 4 | 13% | 1 | 
17 | TYQRTRAVLRTGMDPRM (TYQRTRALVRTGMDPRM; Influenza A virus) [NP21, synthetic peptide of H3N2 influenza A NP protein, amino acid position 147-163] | 331 SFC/million PBMC | 8 | 13% | 1 | 
18 | VKLYRKLKREITFHGAKE (Influenza A virus) [Peptide M13, synthetic peptide of H1N1 influenza A M protein, amino acid position 97-114] |  |  |  |  | CD4 or CD8 dependency [3]: 4; SFC/million PBMC, days after challenge 7 [3]: 70 SFC/million PBMC; SFC/million PBMC, days after challenge 28 [3]: 10 SFC/million PBMC; SFC/million PBMC, days after challenge −2 [3]: 30 SFC/million PBMC; SFC/million PBMC (range) ([3]; baseline samples): 41 (30-52) SFC/million PBMC; CD4 or CD8 dependency [3, 4]: 4; Positive no(%) [3]: 28%; CD4 or CD8 dependency ([3]; subject B017(2C)): 4; SFC/million PBMC, days after challenge 7 ([3]; subject B017(2C), day 7): 316 SFC/million PBMC; SFC/million PBMC, days after challenge 28 ([3]; subject B017(2C), day 28): 33 SFC/million PBMC; SFC/million PBMC, days after challenge −2 ([3]; subject B017(2C), day −2): 52 SFC/million PBMC; Positive no [3]: 2
